From publication PMC4363635 (PLoS ONE, 2015)
Ends that are not written are not given here. Peptide text beside a SMILES is read from it.

How the values were obtained:
[1] = Stability in cell medium; assay type: in vitro ADME; conditions: cell medium in Krebs-Henseleit buffer, 37°C
Method: (§1) In vitro chemical and metabolic stability was determined in cell medium and human plasma, respectively, using previously described procedures. In brief, 100 μg of peptide was incubated in Krebs-Henseleit buffer pH 7.4 with cell medium/plasma (500 μl) at 37°C while shaking. […] The enzyme reaction was further stopped by heating the solution at 95°C for 5 minutes. Next, the samples were centrifuged to precipitate the denatured proteins and the supernatant analyzed using UPLC-PDA. Appropriate placebo solutions were similarly prepared. Assuming first-order kinetics, the rate constant k was obtained from ln(Pt/Pt0) = -kt, from which the half-life was determined as t1/2 = ln(2)/k.

[2] = Stability in human plasma; assay type: in vitro ADME; conditions: human plasma in Krebs-Henseleit buffer
Method: as §1

[3] = in vitro; conditions: human, Caco-2
[4] = tested on: Caco-2 monolayer; assay: Caco-2 permeability assay; conditions: for intestinal permeability (in words): Caco-2 monolayer, 10 μM in HBSS
[5] = tested on: MCF-7/AZ cells; assay: Collagen type I invasion assay; assay type: cell-based, human; conditions: 24 hours post-treatment; 1 μM, 100 nM and 10 nM; positive if collagen-invasion or cell-stretching at minimum 2 consecutive concentrations; n = 3
Method: Morphology changes of MCF-7/AZ cells were investigated using previously described methods [12]. […] Peptide solutions (S1 Table) (> 80% purity; all from GL Biochem, Shanghai, China) were prepared using ultrapure water and DMSO, obtaining final peptide concentrations of 1 μM (maximum 0.05% DMSO), 100 nM and 10 nM after 1:10 dilution using growth medium. […] To quantify these visual results, the number of cells containing invasive extensions were counted and compared to the total number of cells in the field.

[6] = Krebs-Henseleit buffer pH 7.4 with cell medium, 0, 6 and 24 hours, first-order kinetics, read-out: Cell medium half-life (converted)
[7] = human, pH 7.4, footnote a, human plasma, 37°C, sampled up to 120 minutes, read-out: calculated half-life in plasma
[8] = human, pH 7.4, human plasma, Krebs-Henseleit buffer pH 7.4, 37°C, 0, 30 and 120 minutes, first-order kinetics, read-out: Plasma half-life (converted)

Compound	half-life [1, 6] [h]	half-life [2, 7] [h]	half-life [2, 8] [h]	intestinal permeability (in words) [4]	Papp A→B at 120 min, 10 μM [3] [×10⁻⁶ cm/s]	other results
NNWNN [EDF, NNWNN]	16.2	13.2	> 13	impermeable		Papp at 120 min, 10 μM [3]: < 0.0029 ×10⁻⁶ cm/s
EKMIG [PhrG, EKMIG]		13.2	> 13	does not show any absorption from the intestinal lumen	< 0.0069	half-life ([1]; pH 7.4, Krebs-Henseleit buffer pH 7.4 with cell medium, 0, 6 and 24 hours, first-order kinetics, read-out: Cell medium half-life (converted)): 160 h; half-life ([1]; pH 7.4, footnote a, sampled up to 24 hours, read-out: calculated half-life in cell medium): 158 h; Papp B→A at 120 min, 10 μM [3]: 0.0137 ×10⁻⁶ cm/s
NC(=O)C[C@H](NC(=O)[C@H](Cc1c[nH]c2ccccc12)NC(=O)[C@@H](N)CC(N)=O)C(=O)O [EDF-analogue, NWN] (H-Asn-Trp-Asn-OH; N-terminus and C-terminus assumed)	42		4.47	can pass the intestinal barrier	0.141	efflux ratio at 120 min, 10 μM [3]: 1.1; efflux ratio change using the PepT1 substrate LY ([4]; 10 μM peptide plus dipeptide LY (10 μM)): doubled; intestinal permeability (in words) ([4]; listed as NWN): low intestinal permeability kinetics; absorption in humans (in vivo) corresponding to in vitro Papp values ([4]; in vivo-in vitro correlation studies ref 15, 33): 5–10%
ARNQT [PhrA]						tumour cell invasion through a type I collagen extracellular matrix (morphology scoring) [5]: did not induce invasive characteristics
EMRKSNNNFFHFLRRI [CSP]	45.8					half-life ([2]; human plasma, Krebs-Henseleit buffer pH 7.4, 37°C, 0, 30 and 120 minutes, first-order kinetics, read-out: Plasma half-life (converted)): 8.73 h
